ChEMBL document CHEMBL2331144, “Synthesis and anticancer activity of analogues of phenstatin, with a phenothiazine A-ring, as a new class of microtubule-targeting agents” (Bioorg Med Chem Lett, 2013)

How the values were obtained:
[1] = test system: SN12C; experiment: Growth inhibition of human SN12C cells after 48 hrs by sulforhodamine B assay; type: functional
[2] = test system: SF-539; experiment: Growth inhibition of human SF539 cells after 48 hrs by sulforhodamine B assay; type: functional; conditions: SF-539, 48 h
[3] = test system: HOP-62; experiment: Growth inhibition of human HOP62 cells after 48 hrs by sulforhodamine B assay; type: functional; conditions: HOP-62, 48 h
[4] = test system: SK-MEL-5; experiment: Growth inhibition of human SK-MEL-5 cells after 48 hrs by sulforhodamine B assay; type: functional; conditions: SK-MEL-5, 48 h
[5] = test system: SK-MEL-2; experiment: Growth inhibition of human SK-MEL-2 cells after 48 hrs by sulforhodamine B assay; type: functional; conditions: SK-MEL-2, 48 h
[6] = test system: OVCAR-3; experiment: Growth inhibition of human OVCAR3 cells after 48 hrs by sulforhodamine B assay; type: functional; conditions: OVCAR-3, 48 h
[7] = test system: CCRF-CEM; experiment: Growth inhibition of human CCRF-CEM cells after 48 hrs by sulforhodamine B assay; type: functional
[8] = test system: DU-145; experiment: Growth inhibition of human DU145 cells after 48 hrs by sulforhodamine B assay; type: functional; conditions: DU-145, 48 h
[9] = test system: SF-295; experiment: Growth inhibition of human SF295 cells after 48 hrs by sulforhodamine B assay; type: functional; conditions: SF-295, 48 h
[10] = test system: MDA-MB-468; experiment: Growth inhibition of human MDA-MB-468 cells after 48 hrs by sulforhodamine B assay; type: functional; conditions: MDA-MB-468, 48 h
[11] = test system: A549; experiment: Growth inhibition of human A549/ATCC cells after 48 hrs by sulforhodamine B assay; type: functional; conditions: A549, 48 h
[12] = test system: HL-60(TB); experiment: Growth inhibition of human HL-60(TB) cells after 48 hrs by sulforhodamine B assay; type: functional; conditions: HL-60, 48 h
[13] = test system: Malme-3M; experiment: Growth inhibition of human MALME-3M cells after 48 hrs by sulforhodamine B assay; type: functional
[14] = test system: NCI-H23; experiment: Growth inhibition of human NCI-H23 cells after 48 hrs by sulforhodamine B assay; type: functional; conditions: NCI-H23, 48 h
[15] = test system: MCF7; experiment: Growth inhibition of human MCF7 cells after 48 hrs by sulforhodamine B assay; type: functional; conditions: MCF7, 48 h
[16] = test system: IGROV-1; experiment: Growth inhibition of human IGROV1 cells after 48 hrs by sulforhodamine B assay; type: functional; conditions: IGROV-1, 48 h
[17] = Growth inhibition of human NCI-ADR-RES cells after 48 hrs by sulforhodamine B assay; type: functional
[18] = Growth inhibition of human HCC2998 cells after 48 hrs by sulforhodamine B assay; type: functional; conditions: HCC 2998, 48 h
[19] = test system: OVCAR-5; experiment: Growth inhibition of human OVCAR5 cells after 48 hrs by sulforhodamine B assay; type: functional; conditions: OVCAR-5, 48 h
[20] = test system: MDA-MB-231; experiment: Growth inhibition of human MDA-MB-231 cells after 48 hrs by sulforhodamine B assay; type: functional; conditions: MDA-MB-231, 48 h
[21] = test system: COLO 205; experiment: Growth inhibition of human COLO205 cells after 48 hrs by sulforhodamine B assay; type: functional; conditions: COLO 205, 48 h
[22] = test system: TK-10; experiment: Growth inhibition of human TK10 cells after 48 hrs by sulforhodamine B assay; type: functional; conditions: TK-10, 48 h
[23] = test system: RXF 393; experiment: Growth inhibition of human RXF393 cells after 48 hrs by sulforhodamine B assay; type: functional; conditions: RXF 393, 48 h
[24] = test system: NCI-H522; experiment: Growth inhibition of human NCI-H522 cells after 48 hrs by sulforhodamine B assay; type: functional; conditions: NCI-H522, 48 h
[25] = test system: LOX IMVI; experiment: Growth inhibition of human LOXIMVI cells after 48 hrs by sulforhodamine B assay; type: functional
[26] = test system: SK-MEL-28; experiment: Growth inhibition of human SK-MEL-28 cells after 48 hrs by sulforhodamine B assay; type: functional; conditions: SK-MEL-28, 48 h
[27] = test system: MDA-MB-435; experiment: Growth inhibition of human MDA-MB-435 cells after 48 hrs by sulforhodamine B assay; type: functional; conditions: MDA-MB-435, 48 h
[28] = test system: SF-268; experiment: Growth inhibition of human SF268 cells after 48 hrs by sulforhodamine B assay; type: functional; conditions: SF-268, 48 h
[29] = test system: UACC-257; experiment: Growth inhibition of human UACC257 cells after 48 hrs by sulforhodamine B assay; type: functional; conditions: UACC-257, 48 h
[30] = organism: Ovis aries; experiment: Inhibition of sheep brain tubulin polymerization at 100 uM using DAPI by fluorimetry
[31] = test system: HCT-116; experiment: Growth inhibition of human HCT116 cells after 48 hrs by sulforhodamine B assay; type: functional; conditions: HCT-116, 48 h
[32] = test system: MOLT-4; experiment: Growth inhibition of human MOLT4 cells after 48 hrs by sulforhodamine B assay; type: functional; conditions: MOLT-4, 48 h
[33] = test system: HT-29; experiment: Growth inhibition of human HT-29 cells after 48 hrs by sulforhodamine B assay; type: functional; conditions: HT-29, 48 h
[34] = test system: HCT-15; experiment: Growth inhibition of human HCT15 cells after 48 hrs by sulforhodamine B assay; type: functional; conditions: HCT-15, 48 h
[35] = test system: CAKI-1; experiment: Growth inhibition of human CAKI-1 cells after 48 hrs by sulforhodamine B assay; type: functional; conditions: CAKI-1, 48 h
[36] = test system: KM12; experiment: Growth inhibition of human KM12 cells after 48 hrs by sulforhodamine B assay; type: functional; conditions: KM12, 48 h
[37] = test system: M14; experiment: Growth inhibition of human M14 cells after 48 hrs by sulforhodamine B assay; type: functional; conditions: M14, 48 h
[38] = test system: UO-31; experiment: Growth inhibition of human UO31 cells after 48 hrs by sulforhodamine B assay; type: functional; conditions: UO-31, 48 h
[39] = test system: A498; experiment: Growth inhibition of human A498 cells after 48 hrs by sulforhodamine B assay; type: functional; conditions: A498, 48 h
[40] = test system: SNB-75; experiment: Growth inhibition of human SNB75 cells after 48 hrs by sulforhodamine B assay; type: functional; conditions: SNB-75, 48 h
[41] = test system: SK-OV-3; experiment: Growth inhibition of human SKOV3 cells after 48 hrs by sulforhodamine B assay; type: functional; conditions: SK-OV-3, 48 h
[42] = test system: K562; experiment: Growth inhibition of human K562 cells after 48 hrs by sulforhodamine B assay; type: functional; conditions: K562, 48 h
[43] = test system: NCI-H460; experiment: Growth inhibition of human NCI-H460 cells after 48 hrs by sulforhodamine B assay; type: functional; conditions: NCI-H460, 48 h
[44] = test system: SW-620; experiment: Growth inhibition of human SW620 cells after 48 hrs by sulforhodamine B assay; type: functional; conditions: SW-620, 48 h
[45] = test system: 786-0; experiment: Growth inhibition of human 786-0 cells after 48 hrs by sulforhodamine B assay; type: functional; conditions: 786-0, 48 h
[46] = test system: BT-549; experiment: Growth inhibition of human BT549 cells after 48 hrs by sulforhodamine B assay; type: functional; conditions: BT-549, 48 h
[47] = test system: T47D; experiment: Growth inhibition of human T47D cells after 48 hrs by sulforhodamine B assay; type: functional
[48] = Growth inhibition of human Hs 578T cells after 48 hrs by sulforhodamine B assay; type: functional
[49] = test system: PC-3; experiment: Growth inhibition of human PC3 cells after 48 hrs by sulforhodamine B assay; type: functional; conditions: PC-3, 48 h
[50] = test system: SR; experiment: Growth inhibition of human SR cells after 48 hrs by sulforhodamine B assay; type: functional
[51] = test system: RPMI-8226; experiment: Growth inhibition of human RPMI8226 cells after 48 hrs by sulforhodamine B assay; type: functional; conditions: RPMI-8226, 48 h
[52] = test system: OVCAR-8; experiment: Growth inhibition of human OVCAR8 cells after 48 hrs by sulforhodamine B assay; type: functional; conditions: OVCAR-8, 48 h
[53] = test system: ACHN; experiment: Growth inhibition of human ACHN cells after 48 hrs by sulforhodamine B assay; type: functional
[54] = test system: UACC-62; experiment: Growth inhibition of human UACC62 cells after 48 hrs by sulforhodamine B assay; type: functional; conditions: UACC-62, 48 h
[55] = test system: OVCAR-4; experiment: Growth inhibition of human OVCAR4 cells after 48 hrs by sulforhodamine B assay; type: functional; conditions: OVCAR-4, 48 h

Compound: CN(C)Cc1cn(C(=O)N2c3ccccc3Sc3ccccc32)c2ccccc12
- GI50 [1]: 1980 nM
- GI50 [2]: 1640 nM
- GI50 [3]: 1680 nM
- GI50 [4]: 1600 nM
- GI50 [5]: 2230 nM
- GI50 [6]: 1950 nM
- GI50 [7]: 2000 nM
- GI50 [8]: 1980 nM
- GI50 [9]: 1750 nM
- GI50 [10]: 1160 nM
- GI50 [11]: 1680 nM
- GI50 [12]: 2220 nM
- GI50 [13]: 1990 nM
- GI50 [14]: 4850 nM
- GI50 [15]: 1790 nM
- GI50 [16]: 1730 nM
- GI50 [17]: 2530 nM
- GI50 [18]: 1850 nM
- GI50 [19]: 1500 nM
- GI50 [20]: 1170 nM
- GI50 [21]: 1850 nM
- GI50 [22]: 1730 nM
- GI50 [23]: 1210 nM
- GI50 [24]: 1900 nM
- GI50 [25]: 1800 nM
- GI50 [26]: 1720 nM
- GI50 [27]: 1740 nM
- GI50 [28]: 2920 nM
- GI50 [29]: 1600 nM
- inhibition [30]: 9%
- GI50 [31]: 1740 nM
- GI50 [32]: 2130 nM
- GI50 [33]: 1790 nM
- GI50 [34]: 1700 nM
- GI50 [35]: 1530 nM
- GI50 [36]: 1890 nM
- GI50 [37]: 1970 nM
- GI50 [38]: 1610 nM
- GI50 [39]: 1240 nM
- GI50 [40]: 1650 nM
- GI50 [41]: 2020 nM
- GI50 [42]: 1950 nM
- GI50 [43]: 1810 nM
- GI50 [44]: 1840 nM
- GI50 [45]: 1750 nM
- GI50 [46]: 2960 nM
- GI50 [47]: 2040 nM
- GI50 [48]: 2080 nM
- GI50 [49]: 1620 nM
- GI50 [50]: 1760 nM
- GI50 [51]: 1840 nM
- GI50 [52]: 1780 nM
- GI50 [53]: 1500 nM
- GI50 [54]: 1720 nM
- GI50 [55]: 2040 nM

Compound: COc1c(F)ccc(C(=O)N2c3ccccc3Sc3ccccc32)c1F
- GI50 [1]: 6070 nM
- GI50 [2]: 5030 nM
- GI50 [3]: 8370 nM
- GI50 [4]: 2950 nM
- GI50 [5]: 3450 nM
- GI50 [6]: 4200 nM
- GI50 [7]: 5000 nM
- GI50 [8]: 14000 nM
- GI50 [9]: 6100 nM
- GI50 [10]: 1700 nM
- GI50 [11]: 4070 nM
- GI50 [12]: 3990 nM
- GI50 [13]: 3090 nM
- GI50 [14]: 4890 nM
- GI50 [15]: 5500 nM
- GI50 [16]: 4870 nM
- GI50 [17]: 2970 nM
- GI50 [18]: 11700 nM
- GI50 [19]: 24100 nM
- GI50 [20]: 3660 nM
- GI50 [21]: 6470 nM
- GI50 [22]: 10200 nM
- GI50 [23]: 2290 nM
- GI50 [24]: 2700 nM
- GI50 [25]: 4720 nM
- GI50 [26]: 4930 nM
- GI50 [27]: 1800 nM
- GI50 [28]: 6500 nM
- GI50 [29]: 6510 nM
- inhibition [30]: 10%
- GI50 [31]: 3600 nM
- GI50 [32]: 4290 nM
- GI50 [33]: 3240 nM
- GI50 [34]: 3070 nM
- GI50 [35]: 4010 nM
- GI50 [36]: 4010 nM
- GI50 [37]: 3860 nM
- GI50 [38]: 6520 nM
- GI50 [39]: 2220 nM
- GI50 [40]: 2320 nM
- GI50 [41]: 12200 nM
- GI50 [42]: 3240 nM
- GI50 [43]: 3670 nM
- GI50 [44]: 3680 nM
- GI50 [45]: 7570 nM
- GI50 [46]: 5210 nM
- GI50 [47]: 5240 nM
- GI50 [48]: 6920 nM
- GI50 [49]: 2840 nM
- GI50 [50]: 2330 nM
- GI50 [51]: 3220 nM
- GI50 [52]: 10000 nM
- GI50 [53]: 7960 nM
- GI50 [54]: 2680 nM
- GI50 [55]: 10300 nM
